Counter-ions that a name gives are not always drawn.
How the values were obtained:
[1] = Diameter and PDI from DLS measurements of mRNA nanoparticles with lipid amines; type: physicochemical
How it was run: (§1)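 DLS gave size and PDI, and Ribogreen gave encapsulation, for luciferase- or CFTR-mRNA nanoparticles (N:P 4.93). Particles came from IL1/DSPC/cholesterol/PEG-DMG-2K mixed at pH 4, mRNA-loaded, neutralized with TRIS pH 8.12, and then treated with lipid amine SA50 in pH 7.5 buffer.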

[2] = Encapsulation of mRNA nanoparticles with lipid amines using Ribogreen assay; type: physicochemical
How it was run: as §1

[3] = test system: HeLa cells; experiment: Luciferase Protein Expression Assay in HeLa Cells; type: cell-based, Human; details: LNPs encapsulating Luciferase mRNA, 25 ng per well, N=4 wells; 5 h serum-free then 24 h; ONE-Glo
How it was run: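 Luminescence output, average RLU across N=4 wells, was measured with ONE-Glo after cell lysis. Before that, HeLa cells were exposed to 25 ng/well luciferase-mRNA nanoparticles (PBS control) for 5 h serum-free, then cultured overnight (24 h) in complete MEM.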

[4] = test system: HeLa cells; experiment: CFTR Protein Expression Assay in HeLa Cells; type: cell-based, Human; details: LNPs encapsulating CFTR mRNA, N=4 wells; 5 h serum-free then 24 h; immunofluorescence vs PBS control
How it was run: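 Readout is fold-change in per-cell CFTR immunofluorescence intensity (488 nm, confocal imaging) relative to PBS-treated cells, from 4 replicate wells. LNPs encapsulating CFTR mRNA were applied serum-free for 5 h, followed by 24 h in complete medium before PFA fixation.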

[5] = CFTR mRNA nanoparticle with lipid amine
[6] = Luciferase mRNA nanoparticle modified with lipid amine

Row | SMILES | Diameter (nm) [1, 5] | PDI [1, 5] | Diameter (nm) [1, 6] | PDI [1, 6] | % Encapsulation (Ribogreen) [2, 5] | % Encapsulation (Ribogreen) [2, 6] | Average Relative Light Units ± Standard Deviation [3] | Average fold-change in CFTR signal intensity per cell compared to buffer control ± standard deviation [4]
1 | CC(C)CCC[C@@H](C)[C@H]1CC[C@H]2[C@@H]3CC=C4C[C@@H](SSCCC(=O)N(CCCCCCCC(C)N)CCC(C)N)CC[C@]4(C)[C@H]3CC[C@]12C (stereo partly drawn) [SA172, N-(3-aminobutyl)-N-(8-aminononyl)-3-(((3S,8S,9S,10R,13R,14S,17R)-10,13-dimethyl-17-((R)-6-methylheptan-2-yl)-2,3,4,7,8,9,10,11,12,13,14,15,16,17-tetradecahydro-1H-cyclopenta[a]phenanthren-3-yl)disulfaneyl)propanamide dihydrochloride] | 70.3 nm | 0.13 | 74 nm | 0.10 | 98.3% | 99.4% | 27528.4 ± 6654.4 Relative Light Units | 17.8 ± 1.1 fold-change
2 | CC(C)CCC[C@@H](C)[C@H]1CC[C@H]2[C@@H]3CC=C4C[C@@H](SSCCC(=O)N(CCC(C)N)CCC(C)N)CC[C@]4(C)[C@H]3CC[C@]12C (stereo partly drawn) [SA173, N,N-bis(3-aminobutyl)-3-(((3S,8S,9S,10R,13R,14S,17R)-10,13-dimethyl-17-((R)-6-methylheptan-2-yl)-2,3,4,7,8,9,10,11,12,13,14,15,16,17-tetradecahydro-1H-cyclopenta[a]phenanthren-3-yl)disulfaneyl)propanamide dihydrochloride] | 71.8 nm | 0.16 | 73 nm | 0.18 | 100% | 99.5% | 33596.1 ± 6033 Relative Light Units | 13.5 ± 0.8 fold-change
3 | CC(C)CCC[C@@H](C)[C@H]1CC[C@H]2[C@@H]3CC=C4C[C@@H](SSCCC(=O)N(CCC(C)(C)N)CCC(C)(C)N)CC[C@]4(C)[C@H]3CC[C@]12C [SA174, N,N-bis(3-amino-3-methylbutyl)-3-(((3S,8S,9S,10R,13R,14S,17R)-10,13-dimethyl-17-((R)-6-methylheptan-2-yl)-2,3,4,7,8,9,10,11,12,13,14,15,16,17-tetradecahydro-1H-cyclopenta[a]phenanthren-3-yl)disulfaneyl)propanamide dihydrochloride] | 71.1 nm | 0.16 | 73 nm | 0.17 | 98.1% | 99.5% | 31280.7 ± 5830.7 Relative Light Units | 14.8 ± 1.4 fold-change
4 | CC[C@H](CC[C@@H](C)[C@H]1CC[C@H]2[C@@H]3CC=C4C[C@@H](SSCCC(=O)N(CCCCCCCC(C)N)CCC(C)N)CC[C@]4(C)[C@H]3CC[C@]12C)C(C)C (stereo partly drawn) [SA178, N-(3-aminobutyl)-N-(8-aminononyl)-3-(((3S,8S,9S,10R,13R,14S,17R)-17-((2R,5R)-5-ethyl-6-methylheptan-2-yl)-10,13-dimethyl-2,3,4,7,8,9,10,11,12,13,14,15,16,17-tetradecahydro-1H-cyclopenta[a]phenanthren-3-yl)disulfaneyl)propanamide dihydrochloride] | 83 nm | 0.26 | 75 nm | 0.20 | 100% | 98.8% | 10196.5 ± 602.4 Relative Light Units | 9.8 ± 0.3 fold-change

Source: patent US20260109732A1, “LIPID AMINES” (ModernaTX, Inc., priority 2021, published 2026)
